Test results as given in article PMC8910432 (International Journal of Molecular Sciences, 2022).

How the values were obtained:
[1] = target: RBD (N501Y) spike protein and human ACE2 (Severe acute respiratory syndrome coronavirus 2, UniProt P0DTC2, N501Y); type: binding, SARS-CoV-2; human; settings: for inhibitory effect on interaction between RBD (N501Y) spike protein and human ACE2: 10 µM
[2] = target: RBD (N501Y) (Severe acute respiratory syndrome coronavirus 2, UniProt P0DTC2, N501Y); type: binding, SARS-CoV-2

| Compound | concentration from which inhibition is significant [1] [µM] | inhibitory effect on interaction between RBD (N501Y) spike protein and human ACE2 [1] | reduction of the binding between RBD (N501Y) spike protein and ACE2 [1] | TA adsorption onto RBD (QCMD) [2] |
| --- | --- | --- | --- | --- |
| O=C(OC[C@H]1O[C@@H](OC(=O)c2cc(O)c(O)c(O)c2)[C@H](O)[C@@H](OC(=O)c2cc(O)c(O)c(O)c2)[C@@H]1O)c1cc(O)c(O)c(O)c1 [TGG, 1,3,6-tri-O-galloyl-β-D-glucose] | ≥ 0.1 | up to 50% |  |  |
| O=C(O[C@@H]1O[C@@H]2COC(=O)c3cc(O)c(O)c(O)c3-c3c(cc(O)c(O)c3O)C(=O)O[C@H]([C@H]1O)[C@@H]2O)c1cc(O)c(O)c(O)c1 [corilagin, β-1-O-galloyl-3,6-(R)-hexahydroxydiphenoyl-D-glucose] | ≥ 0.1 | up to 50% |  |  |
| COc1cc(-c2[o+]c3cc(O)cc(O)c3cc2O[C@@H]2O[C@H](CO)[C@@H](O)[C@H](O)[C@H]2O)cc(OC)c1O [malvidin-3-O-glucoside] |  | only TA, TGG, and corilagin show a significant inhibitory effect |  |  |
| OC[C@H]1O[C@@H](Oc2cc3c(O)cc(O)cc3[o+]c2-c2ccc(O)cc2)[C@H](O)[C@@H](O)[C@@H]1O [pelargonidin-3-O-glucoside] |  | only TA, TGG, and corilagin show a significant inhibitory effect |  |  |
| cyanidin-3-O-glucoside |  | only TA, TGG, and corilagin show a significant inhibitory effect |  |  |
| O=C(OC[C@H]1OC(OC(=O)c2cc(O)c(O)c(OC(=O)c3cc(O)c(O)c(O)c3)c2)[C@H](OC(=O)c2cc(O)c(O)c(OC(=O)c3cc(O)c(O)c(O)c3)c2)[C@@H](OC(=O)c2cc(O)c(O)c(OC(=O)c3cc(O)c(O)c(O)c3)c2)[C@@H]1OC(=O)c1cc(O)c(O)c(OC(=O)c2cc(O)c(O)c(O)c2)c1)c1cc(O)c(O)c(OC(=O)c2cc(O)c(O)c(O)c2)c1 (stereo partly drawn) [TA, 1,2,3,4,6-penta-O-{3,4-dihydroxy-5-((3,4,5-trihydroxybenzoyl)oxy)benzoyl}-D-glucopyranose] | ≥ 0.1 | up to 50% | up to 95% | amount of TA adsorbed increases with TA concentration |
